Read-outs that look alike come from different tables or passages of the source.
How the values were obtained:
[1] = tested on: K562 (chronic myelogenous leukaemia); assay: Effect of compounds on tumor cell lines (assay of Latham et al.), K562; type: cell-based; conditions: K562 cells, read-out: K 562 potency (IC50)
Summary of the method: (§1)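 After 96 h of exposure to compound (1–100 μM in DMSO; one compound at 0.1–100 μM), effects were scored by inverted-microscope inspection, with trypan blue viable counts by hemacytometer when required. Cells were seeded at 2.5×10^4 per well and dosed 24 h after plating.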

DU145 (prostate cancer) = assay: Effect of compounds on tumor cell lines (assay of Latham et al.), DU145; type: cell-based; conditions: DU145 cells, read-out: DU 145 potency (IC50)
Summary of the method: as §1

[2] = Table 1, examined 96 hours after treatment, 1 μM to 100 μM in DMSO
[3] = 96 hours after treatment, 1 μM to 100 μM

| SMILES | IC50 [1, 2] [µM] | IC50 (DU145 (prostate cancer); [2]) [µM] | IC50 [1, 3] [µM] | IC50 (DU145 (prostate cancer); [3]) [µM] | further results |
| --- | --- | --- | --- | --- | --- |
| O=C(C(=Cc1ccc(F)cc1)Sc1ccc(Br)cc1)c1ccc(Br)cc1 [Example 40] | 1 to 10 | 10 to 25 | – | – | – |
| O=C(C(=Cc1ccc(O)cc1O)SCc1cccc(Cl)c1)c1ccc(Br)cc1 [Example 145] | – | – | 25 to 50 | 50 to 100 | – |
| O=C(C(=Cc1ccc(OCc2ccccc2)cc1)SCc1ccc(Cl)cc1Cl)c1ccc(Cl)cc1 [Example 121] | – | – | 10 to 25 | 1 to 10 | – |
| Cc1ccc(CSC(=Cc2ccc(Cl)c([N+](=O)[O-])c2)C(=O)c2ccc(C(=O)O)cc2)cc1 [Example 287] | – | – | ≤ 1 | 1 to 10 | – |
| O=C(C(=Cc1ccc(O)cc1O)Sc1ccc(Br)cc1)c1ccc(Cl)cc1 [Example 16] | 25 to 50 | 50 to 100 | – | – | – |
| CN1CCN(CCNC(=O)c2ccc(C(=O)/C(=C\c3ccc(F)c([N+](=O)[O-])c3)SCc3ccc(F)cc3)cc2)CC1 [Example 337] | – | – | 10 to 25 | 10 to 25 | – |
| COc1ccccc1C=C(SCc1ccc(F)cc1)C(=O)c1ccc(Cl)cc1 [Example 240] | – | – | 1 to 10 | 10 to 25 | – |
| O=C(C(=Cc1ccc(Br)cc1)SCc1ccc(F)cc1)c1ccc(Cl)cc1 [Example 254] | – | – | 1 to 10 | 10 to 25 | – |
| O=C(/C(=C\c1cccc(Cl)c1Cl)SCc1ccc(Cl)cc1)c1ccc(Br)cc1 [Example 190] | – | – | 10 to 25 | 10 to 25 | – |
| Cc1ccc(SC(=Cc2ccc(F)cc2OC(F)(F)F)C(=O)c2ccc(Br)cc2)cc1 [Example 94] | 25 to 50 | 25 to 50 | – | – | – |
| O=C(C(=Cc1ccc(Br)c([N+](=O)[O-])c1)Sc1ccc(Br)cc1)c1ccc(Br)cc1 [Example 34] | 1 to 10 | 1 to 10 | – | – | – |
| Nc1c(Br)cc(Br)cc1C=C(Sc1ccc(Br)cc1)C(=O)c1ccc(Br)cc1 [Example 20] | > 100 | > 100 | – | – | – |
| Cc1ccc(C=C(SCc2ccc(Cl)cc2)C(=O)c2ccc(Br)cc2)s1 [Example 229] | – | – | 50 to 100 | > 100 | – |
| O=C(/C(=C\c1ccc(O)c([N+](=O)[O-])c1)SCc1ccc(Br)cc1)c1ccc([N+](=O)[O-])c(Cl)c1 [Example 179] | – | – | 1 to 10 | 1 to 10 | – |
| COc1ccc(SC(=Cc2ccccc2OCc2ccccc2)C(=O)c2ccc(Cl)cc2)cc1 [Example 62] | 1 to 10 | 1 to 10 | – | – | – |
| Cc1ccc(CSC(=Cc2ccc(C)s2)C(=O)c2ccc(Cl)cc2)cc1 [Example 298] | – | – | 50 to 100 | 50 to 100 | – |
| Cc1ccc(SC(=Cc2c[nH]c3ccc(Br)cc23)C(=O)c2ccc(Br)cc2)cc1 [Example 105] | 10 to 25 | 1 to 10 | – | – | – |
| Cc1ccc(SC(=Cc2c[nH]c3ccc(Br)cc23)C(=O)c2ccc(Cl)cc2)cc1 [Example 106] | 1 to 10 | 1 to 10 | – | – | – |
| CC1=CC(=O)C(C)=C(C(C)(C)CC(=O)Oc2cc(C=C(SCc3ccc(Br)cc3)C(=O)c3ccc(Br)cc3)ccc2[N+](=O)[O-])C1=O [Example 307] | – | – | 1 to 10 | 1 to 10 | – |
| O=C(C(=Cc1ccc(F)c([N+](=O)[O-])c1)SCc1ccc(Br)cc1)c1ccc(C(=O)N2CCN(CCO)CC2)cc1 [Example 316] | – | – | ≤ 1 | ≤ 1 | – |

| SMILES | IC50 [1, 2] [µM] | IC50 (DU145 (prostate cancer); [2]) [µM] | IC50 [1, 3] [µM] | IC50 (DU145 (prostate cancer); [3]) [µM] | further results |
| --- | --- | --- | --- | --- | --- |
| O=C(O)c1ccc(C(=O)/C(=C\c2ccc(Br)cc2)SCc2ccc(F)cc2)cc1 [Example 334] | – | – | > 100 | > 100 | – |
| O=C(C(=Cc1ccc([N+](=O)[O-])c(O)c1)SCc1ccc(Br)cc1)c1c(F)c(F)c(F)c(F)c1F [Example 152] | – | – | 1 to 10 | 10 to 25 | – |
| O=C(/C(=C\c1ccc(O)c([N+](=O)[O-])c1)SCc1ccc(Br)cc1)c1ccc(N2CCCC2)cc1 [Example 185] | – | – | > 100 | > 100 | – |
| Cc1ccc(S(=O)(=O)Oc2ccc(C(=O)/C(=C\c3ccc(F)c([N+](=O)[O-])c3)SCc3ccc(F)cc3)cc2)cc1 [Example 336] | – | – | 1 to 10 | 1 to 10 | – |
| O=C(C(=Cc1ccc(F)cc1Cl)Sc1ccc(Br)cc1)c1ccc(Br)cc1 [Example 22] | 1 to 10 | 1 to 10 | – | – | – |
| COc1ccc(C(=O)C(=Cc2ccc(OC)c(O)c2)Sc2ccc(F)cc2)cc1 [Example 56] | 1 to 10 | 10 to 25 | – | – | – |
| O=C(/C(=C\c1ccc(O)c([N+](=O)[O-])c1)SCc1ccc(Br)cc1)c1ccc(O)cc1O [Example 177] | – | – | 50 to 100 | > 100 | – |
| Cc1ccc(CSC(=Cc2cccc(Cl)c2Cl)C(=O)c2ccc(Cl)cc2)cc1 [Example 271] | – | – | 25 to 50 | 25 to 50 | – |
| O=C(O)c1ccc(C(=O)C(=Cc2ccc(Cl)c([N+](=O)[O-])c2)SCc2ccc(F)cc2)cc1 [Example 255] | – | – | ≤ 1 | 1 to 10 | – |
| Cc1ccc(CS/C(=C/c2ccc(F)c([N+](=O)[O-])c2)C(=O)c2ccc(C(=O)O)cc2)cc1 [Example 348] | – | – | 1 to 10 | 10 to 25 | – |
| COc1ccccc1C=C(Sc1ccc(C)cc1)C(=O)c1ccc(Cl)cc1 [Example 75] | 10 to 25 | 25 to 50 | – | – | – |
| Cc1ccc(SC(=Cc2c(F)c(F)c(F)c(F)c2F)C(=O)c2ccc(Cl)cc2)cc1 [Example 65] | 25 to 50 | 25 to 50 | – | – | – |
| Cc1ccc(SC(=Cc2cc(C)cc(C)c2)C(=O)c2ccc(Cl)cc2)cc1 [Example 78] | 25 to 50 | 50 to 100 | – | – | – |
| COc1cc(OC)c(C=C(SCc2ccc(Cl)cc2Cl)C(=O)c2ccc(Cl)cc2)c(OC)c1 [Example 116] | – | – | 25 to 50 | 1 to 10 | – |
| N#Cc1ccc(C(=O)C(=Cc2ccc([N+](=O)[O-])c(O)c2)SCc2ccc(Br)cc2)cc1 [Example 157] | – | – | 1 to 10 | 1 to 10 | – |
| CN1CCN(c2ccc(C=C(SCc3ccc(Br)cc3)C(=O)c3ccc(C(=O)O)cc3)cc2[N+](=O)[O-])CC1 [Example 308] | – | – | 1 to 10 | 10 to 25 | – |
| COc1ccc(C=C(Sc2ccc(Br)cc2)C(=O)c2ccc(Cl)cc2)cc1 [Example 48] | 1 to 10 | 50 to 100 | – | – | – |
| Cc1ccc(SC(=Cc2ccc(-c3ccccc3)cc2)C(=O)c2ccc(Cl)cc2)cc1 [Example 111] | 25 to 50 | 50 to 100 | – | – | – |
| O=C(/C(=C\c1ccc(F)c([N+](=O)[O-])c1)SCc1ccc(F)cc1)c1ccc(O)cc1 [Example 342] | – | – | ≤ 1 | ≤ 1 | – |
| Cc1ccsc1C=C(SCc1ccccc1F)C(=O)c1ccc(Cl)cc1 [Example 134] | – | – | 50 to 100 | 50 to 100 | – |

| SMILES | IC50 [1, 2] [µM] | IC50 (DU145 (prostate cancer); [2]) [µM] | IC50 [1, 3] [µM] | IC50 (DU145 (prostate cancer); [3]) [µM] | further results |
| --- | --- | --- | --- | --- | --- |
| Cc1ccc(SC(=Cc2sccc2C)C(=O)c2ccc(Cl)cc2)cc1 [Example 84] | 50 to 100 | 50 to 100 | – | – | – |
| O=C(C(=Cc1ccc(Br)cc1)Sc1ccc(Br)cc1)c1ccc(Cl)cc1 [Example 36] | 1 to 10 | 1 to 10 | – | – | – |
| Cc1ccc(CSC(=Cc2c(O)cc(O)cc2O)C(=O)c2ccc(Cl)cc2)cc1 [Example 272] | – | – | 50 to 100 | 50 to 100 | – |
| COc1ccccc1C=C(Sc1ccc(Br)cc1)C(=O)c1ccc(Cl)cc1 [Example 25] | 10 to 25 | 10 to 25 | – | – | – |
| Cc1ccc(SC(=Cc2ccc[nH]2)C(=O)c2ccc(Cl)cc2)cc1 [Example 76] | 10 to 25 | 10 to 25 | – | – | – |
| CSc1ccc(C=C(SCc2ccc(Cl)cc2)C(=O)c2ccc(Cl)cc2)cc1 [Example 224] | – | – | 1 to 10 | 25 to 50 | – |
| COc1cc(OC)c(C=C(Sc2ccc(C)cc2)C(=O)c2ccc(Cl)cc2)c(OC)c1 [Example 70] | 25 to 50 | > 100 | – | – | – |
| O=C(C(=Cc1ccc(Cl)c([N+](=O)[O-])c1)Sc1ccc(Br)cc1)c1ccc(Br)cc1 [Example 37] | 1 to 10 | 1 to 10 | – | – | – |
| O=C(O)c1ccc(C(=O)C(=Cc2ccc(F)c([N+](=O)[O-])c2)SCc2ccccc2Cl)cc1 [Example 303] | – | – | 1 to 10 | 1 to 10 | – |
| O=C(C(=Cc1ccc(OCc2ccccc2)cc1)SCc1ccccc1Cl)c1ccccc1Cl [Example 128] | – | – | 1 to 10 | 1 to 10 | – |
| CCOc1ccc(C=C(SCc2ccc(C)cc2)C(=O)c2ccc(Cl)cc2)cc1OC [Example 289] | – | – | 25 to 50 | 25 to 50 | – |
| O=C(C(=Cc1ccc(N2CCN(CCO)CC2)c([N+](=O)[O-])c1)SCc1ccc(F)cc1)c1ccc(F)cc1 [Example 330] | – | – | ≤ 1 | 1 to 10 | – |
| Cc1[nH]c(/C=C(/SCc2ccc(Br)cc2)C(=O)c2ccc(Br)cc2)c(C)c1C(=O)O [Example 167] | – | – | 50 to 100 | 50 to 100 | – |
| CC(=O)c1ccc(C=C(Sc2ccc(C)cc2)C(=O)c2ccc(Br)cc2)cc1 [Example 87] | 50 to 100 | 50 to 100 | – | – | – |
| O=C(/C(=C\c1ccc([N+](=O)[O-])c(O)c1)SCc1ccc(Br)cc1)c1cc(Cl)ccc1O [Example 161] | – | – | 10 to 25 | 10 to 25 | – |
| O=C(/C(=C\c1ccc(O)c([N+](=O)[O-])c1)SCc1ccc(Br)cc1)c1ccc(Cl)cc1Cl [Example 176] | – | – | 1 to 10 | 10 to 25 | – |
| O=C(C(=Cc1c[nH]c2ccc(Br)cc12)SCc1ccc(Cl)cc1Cl)c1ccc(Cl)cc1 [Example 123] | – | – | 1 to 10 | 10 to 25 | – |
| CC(=O)Nc1ccc(/C=C(/SCc2ccc(F)cc2)C(=O)c2ccc(C(=O)O)cc2)cc1[N+](=O)[O-] [Example 332] | – | – | 1 to 10 | 10 to 25 | – |
| O=C(/C(=C\c1ccc(Br)cc1)S(=O)(=O)Cc1ccc(F)cc1)c1ccc(Cl)cc1 [Example 410] | – | – | – | – | IC50 ([1]; Homo sapiens, Table 4, examined 96 hours after treatment, 1 μM to 100 μM in DMSO): 50 to 100 µM; IC50 (DU145 (prostate cancer); Homo sapiens, DU-145, Table 4, examined 96 hours after treatment, 1 μM to 100 μM in DMSO): > 100 µM |
| O=C(/C(=C\c1ccc([N+](=O)[O-])c(O)c1)SCc1ccc(Br)cc1)c1ccc(C(F)(F)F)cc1 [Example 160] | – | – | 1 to 10 | 1 to 10 | – |
